Structures can show the parent of a compound that is named as a salt.

`N=c1n(Cc2ccc(F)c(F)c2)c2ccccc2n1-c1ccc(F)c(F)c1` (as salt: hydrobromid) [Example 13, 1-(3,4-Difluorobenzyl)-3-(3,4-difluorophenyl)-1,3-dihydrobenzoimidazol-2-ylideneamine]: the melting point (as a rule, the temperature of the solid-liquid transition) was in the range of 259 to 260 °C. The value for `Fc1ccc(Cn2c(Nc3ccc(F)c(F)c3)nc3ccccc32)cc1F` (as salt: hydrochloride) [Example 5, N-[1-(3,4-Difluorobenzyl)benzimidazol-2-yl]-3,4-difluoroaniline] was 236 to 238 °C; that for `N=c1n(Cc2ccc(Cl)cc2)c2ccccc2n1Cc1ccc(Cl)cc1` [Example 1, 1,3-Bis(4-chlorobenzyl)-1,3-dihydrobenzoimidazol-2-ylideneamine] was 185 to 187 °C; that for `N=c1n(Cc2ccc(Cl)c(Cl)c2)c2ccccc2n1Cc1ccc(Cl)c(Cl)c1` [Example 2, 1,3-Bis(3,4-dichlorobenzyl)-1,3-dihydrobenzoimidazol-2-ylideneamine] was 145 to 146 °C. In the case of `N=c1n(Cc2ccc(F)cc2)c2ccccc2n1Cc1ccc(F)cc1` [Example 3, 1,3-Bis(4-fluorobenzyl)-1,3-dihydrobenzoimidazol-2-ylideneamine], the melting point fell in the range of 148 to 150 °C.

`N=c1n(Cc2ccc(F)c(F)c2)c2ccccc2n1Cc1ccc(F)c(F)c1` [Example 4, 1,3-Bis(3,4-difluorobenzyl)-1,3-dihydrobenzoimidazol-2-ylideneamine] displayed a melting point of 114 to 117 °C. The value for `Fc1ccc(Cn2c(Nc3ccc(C(F)(F)F)cc3)nc3ccccc32)cc1F` [Example 7, N-[1-(3,4-Difluorobenzyl)benzimidazol-2-yl]-4-trifluoromethylaniline] was 167 to 170 °C. The value for `FC(F)(F)c1cc(Cn2c(Nc3ccc(Cl)c(C(F)(F)F)c3)nc3ccccc32)ccc1Cl` [Example 8, N-[1-(4-Chloro-3-trifluoromethylbenzyl)benzimidazol-2-yl]-4-chloro-3-trifluoromethylaniline] was 88 to 92 °C.

As to `Fc1ccc(CNc2nc3ccccc3n2Cc2ccc(Cl)c(C(F)(F)F)c2)cc1F` [Example 9, N-[1-(4-Chloro-3-trifluoromethylbenzyl)benzimidazol-2-yl]-3,4-difluorobenzylamine], the melting point lay within 158 to 161 °C.

For `N=c1n(Cc2cc(F)cc(F)c2)c2ccccc2n1Cc1cc(F)cc(F)c1` [Example 12, 1,3-Bis(3,5-difluorobenzyl)-1,3-dihydrobenzoimidazol-2-ylideneamine], the melting point lay in the range of 144 to 145 °C. The figure for `N=c1n(Cc2ccc(F)c(F)c2)c2ccc(F)cc2n1Cc1ccc(F)c(F)c1` [Example 15, 1,3-Bis(3,4-difluorobenzyl)-5-fluoro-1,3-dihydrobenzoimidazol-2-ylideneamine] is > 166 °C (dec.); for `N=c1n(Cc2cccc(C(F)(F)F)c2)c2ccccc2n1Cc1cccc(C(F)(F)F)c1` [Example 16, 1,3-Bis[3-(trifluoromethyl)benzyl]-1,3-dihydrobenzoimidazol-2-ylideneamine] it is 175 to 177 °C. The value for `N=c1n(Cc2ccc(F)c(F)c2)c2ccc(Br)cc2n1Cc1ccc(F)c(F)c1` [Example 17, 1,3-Bis(3,4-difluorobenzyl)-5-bromo-1,3-dihydrobenzoimidazol-2-ylideneamine] was 88 to 89.5 °C. The figure for `Fc1ccc(CNc2nc3ccccc3n2-c2ccc(F)c(F)c2)cc1F` [Example 19, (3,4-Difluorobenzyl)-[1-(3,4-difluorophenyl)-1H-benzoimidazol-2-yl]amine] is 158.5 to 159.5 °C; for `Fc1ccc(Nc2nc3ccccc3n2-c2ccc(F)c(F)c2)cc1F` [Example 20, (3,4-Difluorophenyl)-[1-(3,4-difluorophenyl)-1H-benzoimidazol-2-yl]amine] it is 115 to 117 °C.
